Patent US20240360126A1, “PYRAZOLO[3,4-B]PYRIDINE COMPOUNDS FOR THE TREATMENT OF AUTOIMMUNE DISEASE” (Hoffmann-La Roche Inc., priority 2021, published 2024)

Tests used:
[1] = 3T3 in vitro phototoxicity assay (Neutral Red uptake); assay type: cell-based, mouse; conditions: mouse, Balb/c 3T3 mouse fibroblasts (clone A 31, ATCC CCL 163); approx. 5 J/cm^2 UVA light
Text: (§1) Phototoxicity is defined as a toxic response that is elicited after the first exposure of the skin to certain chemicals and subsequent exposure to light, or that is induced similarly by skin irradiation after systemic administration of a chemical substance. The assay used in this study is designed to detect the phototoxic potential of a chemical by using a simple in vitro cytotoxicity assay with Balb/c 3T3 mouse fibroblasts. The principle of this test is a comparison of the cytotoxicity of a chemical when tested with and without exposure to a non-toxic dose of UVA-light. Cytotoxicity is expressed as a dose dependent reduction of the growth rate of cells as determined by uptake of the vital dye Neutral Red one day after treatment.
(§2) Preparation of Stock Solution and Dosage of Test Item A small amount of substance was weighed and formulated freshly in DMSO just before the start of the exposure of the cells. This stock solution or appropriate dilutions with DMSO were added to the cell suspensions to obtain the required final concentrations. All solutions were generally prepared in Eppendorf caps and discarded after use.
(§3) • Chlorpromazine (HCL) (Sigma, Batch/Lot No.: 120M1328V), test concentration: 300 μg/mL, Solvent: PBS/3% DMSO
(§4) For this study the Neutral Red uptake (NRU) assay of Borenfreund and Puemer (Borenfreund, E, Puemer J A. Toxicity determined in vitro by morphological alterations and Neutral Red absorption. Toxicology Lett. 1985; 24:119-124) modified according to INVITTOX protocol No 78 (ERGATT/FRAME data bank of in vitro techniques in toxicology. INVITTOX PROTOCOL No 78. 3T3 NRU Phototoxicity Assay. March 1994) has been adapted to examine a possible phototoxic potential of the test item. This assay is based on the active uptake of the Neutral Red dye into the lysosomes of cultured murine fibroblasts. Because lysosomal membranes are known to be a site of action of many phototoxic compounds, this assay can provide a measure of potential for phototoxic injury.
(§5) A murine fibroblasts clone A 31 (ATCC no. CCL 163—passage No. 108) were cultured in 175 cm^2 tissue culture grade flasks, containing sDMEM (Dulbecco's […] Essential Medium, supplemented with 10% fetal calf serum, 2 mM L-glutamine, 100 units/ml Penicillin and 100 μg/ml streptomycin) at 37° C. in a humidified atmosphere of 6% CO2. Before cells approach confluence they were removed from flasks by trypsinisation. Prior to use in an assay, the cells were transferred to 96-well microtiter plates at a concentration of 1×10^4 cells/well in 100 μl volumes of sDMEM and allowed to attach for 24 h. […]
(§6) For each test item the microtiter plates were prepared according to Table 6. […] UV flux was measured with a UV-meter (Dr. Gröbel RM21). […]

[2] = tested on: Balb/c 3T3 mouse fibroblasts; assay: as above; assay type: cell-based; conditions: IC50 with and without UV exposure compared; cut-off >5
Text: as §1, §2, §3, §4, §5, §6

Cc1cc(N2CC[C@@H](c3ncc(N4CCOC[C@@H](N)C4)cc3C)[C@H](C)C2)c2cnn(C)c2n1 [Example 28, (6S)-4-[6-[(3S,4R)-1-(1,6-dimethylpyrazolo[3,4-b]pyridin-4-yl)-3-methyl-4-piperidyl]-5-methyl-3-pyridyl]-1,4-oxazepan-6-amine]
IC50 at 1 h [1]: > 120 µg/mL | Phototoxicity factor [2]: 1

Cc1cc(N2CC[C@H](c3ccc(N4CCOC[C@@H](N)C4)cn3)[C@@H](C)C2)c2cnn(C)c2n1 [Example 40, (6S)-4-[6-[(3R,4S)-1-(1,6-dimethylpyrazolo[3,4-b]pyridin-4-yl)-3-methyl-4-piperidyl]-3-pyridyl]-1,4-oxazepan-6-amine]
IC50 at 1 h [1]: > 120 µg/mL | Phototoxicity factor [2]: 1
